Source: the RepoRT retention time repository (doi:10.1021/acs.analchem.1c00972)

How the values were obtained:
[1] = RP, Waters ACQUITY UPLC BEH C18, 100 × 1 mm, 1.7 µm, 50 °C, 0.3 mL/min, estimated dead time 0.17 min; A: water + 10 mM ammonium bicarbonate; B: 10% water + 90% methanol + 10 mM ammonium bicarbonate; gradient (min/%B) 0/0 15/100 21/100 22/0 30/0; settings: stereoisomer not certain
[2] = RP, Waters ACQUITY UPLC BEH C18, 100 × 1 mm, 1.7 µm, 50 °C, 0.3 mL/min, estimated dead time 0.17 min; A: water + 0.1% formic acid + 20 mM ammonium formate; B: methanol + 0.1% formic acid + 20 mM ammonium formate; gradient (min/%B) 0/0 15/100 21/100 22/0 30/0; settings: stereoisomer not certain

Compound | LC retention time [1] | LC retention time [2]
CCOP(=S)(OCC)Oc1ccc(=O)n(-c2ccccc2)n1 [Pyridaphenthion] | 14.8 min | 14.6 min
CC=C1CC(C)C(O)(CO)C(=O)OCC2=CC[N+]3([O-])CCC(OC1=O)C23 (stereo not given) [Retrorsine N-oxide] | 8.61 min | 7.74 min
CC=C1CC(C)C(O)(CO)C(=O)OCC2=CCN3CCC(OC1=O)C23 (stereo not given) [Retrorsine] | 11.6 min | 7.62 min
COC1C=COC2(C)Oc3c(C)c(O)c4c(O)c(c5c(nc6cc(C)ccn65)c4c3C2=O)NC(=O)C(C)=CC=CC(C)C(O)C(C)C(O)C(C)C(OC(C)=O)C1C (stereo not given) [Rifaximin] | 14.6 min | 14.7 min
Cc1nc2n(c(=O)c1CCN1CCC(c3noc4cc(F)ccc34)CC1)CCCC2 [Risperidone] | 14.7 min | 10.5 min
CC(C)c1nc(CN(C)C(=O)NC(C(=O)NC(Cc2ccccc2)CC(O)C(Cc2ccccc2)NC(=O)OCc2cncs2)C(C)C)cs1 (stereo not given) [Ritonavir] | 16.3 min | 15.9 min
CCCN(CCC)CCc1cccc2c1CC(=O)N2 [Ropinirole] | 15.2 min | 8.08 min
CCC1OC(=O)C(C)C(OC2CC(C)(OC)C(O)C(C)O2)C(C)C(OC2OC(C)CC(N(C)C)C2O)C(C)(O)CC(C)C(=NOCOCCOC)C(C)C(O)C1(C)O (stereo not given) [Roxithromycin] | 16.9 min | 14.3 min
O=C(O)c1ccccc1O [Salicylic acid] | 4.78 min | 9.72 min
CCNc1nc(NC(C)CC)[nH]c(=O)n1 (stereo not given) [Sebuthylazine-2-hydroxy] | 12 min | 9.91 min
CC=C1CC(C)C(C)(O)C(=O)OCC2=CC[N+]3([O-])CCC(OC1=O)C23 (stereo not given) [Senecionine N-oxide] | 9.78 min | 8.82 min
CC=C1CC(C)C(C)(O)C(=O)OCC2=CCN3CCC(OC1=O)C23 (stereo not given) [Senecionine] | 12.5 min | 8.65 min
C=C1CC(=CC)C(=O)OC2CC[N+]3([O-])CC=C(COC(=O)C1(C)O)C23 (stereo not given) [Seneciphylline N-oxide] | 8.91 min | 8.11 min
C=C1CC(=CC)C(=O)OC2CCN3CC=C(COC(=O)C1(C)O)C23 (stereo not given) [Seneciphylline] | 11.8 min | 7.89 min
C=C1C(=O)OC2CC[N+]3([O-])CC=C(COC(=O)C(C)(O)C(C)C1C)C23 (stereo not given) [Senecivernine N-oxide] | 9.7 min | 8.69 min
C=C1C(=O)OC2CCN3CC=C(COC(=O)C(C)(O)C(C)C1C)C23 (stereo not given) [Senecivernine] | 12.7 min | 8.55 min
CC=C1CC(C)C(C)(O)C(=O)OCC2=CCN(C)CCC(OC1=O)C2=O (stereo not given) [Senkirkine] | 10.2 min | 9.47 min
CCNc1nc(NCC)[nH]c(=O)n1 [Simazine 2-Hydroxy] | 9.04 min | 7.39 min
CC1CCC2(NC1)OC1CC3C4CC=C5CC(O)CCC5(C)C4CCC3(C)C1C2C (stereo not given) [Solasodin] | 18 min | 14.3 min
O=C1C=CCC2C3CCCN4CCCC(CN12)C34 (stereo not given) [Sophocarpine] | 12.8 min | 5.39 min
CCOC1C(OC)C(C)OC(OC2CC3CCC4C5CC(=O)OC(CC)CCCC(OC6CCC(N(C)C)C(C)O6)C(C)C(=O)C5=CC4C3C2)C1OC (stereo not given) [Spinetoram] | 19.2 min | 16.2 min
CCC(C)(C)C(=O)OC1=C(c2ccc(Cl)cc2Cl)C(=O)OC12CCCCC2 [Spirodiclofen] | 18 min | 17.6 min

Compound | LC retention time [1] | LC retention time [2]
Cc1cc(C)c(C2=C(OC(=O)CC(C)(C)C)C3(CCCC3)OC2=O)c(C)c1 [Spiromesifen] | 17.7 min | 17.3 min
COc1cc2c(c3oc4cccc(O)c4c(=O)c13)C1C=COC1O2 (stereo not given) [Sterigmatocystin] | 15 min | 14.6 min
CC12CCC3C(CCC4(O)CC(O)CCC34C=O)C1(O)CCC2C1=CC(=O)OC1 (stereo not given) [Strophanthidin] | 11.3 min | 11 min
Nc1ccc(S(=O)(=O)Nc2ncccn2)cc1 [Sulfadiazin] | 2.61 min | 6 min
COc1ncnc(NS(=O)(=O)c2ccc(N)cc2)c1OC [Sulfadoxine] | 6.19 min | 8.86 min
Cc1ccnc(NS(=O)(=O)c2ccc(N)cc2)n1 [Sulfamerazine] | 5.61 min | 7.14 min
CC[N+]1([O-])CCCC1CNC(=O)c1cc(S(N)(=O)=O)ccc1OC (stereo not given) [Sulpiride N-Oxide] | 6.84 min | 6.62 min
CCC(=C(c1ccccc1)c1ccc(OCCN(C)C)cc1)c1ccccc1 [Tamoxifen] | 18.4 min | 15.8 min
CNC(=O)N(C)c1nnc(C(C)(C)C)s1 [Tebuthiuron] | 12.1 min | 11.9 min
CCCc1nc2c(C)cc(-c3nc4ccccc4n3C)cc2n1Cc1ccc(-c2ccccc2C(=O)O)cc1 [Telmisartan] | 14.6 min | 14.2 min
CS(=O)(=O)c1ccc(C(=O)C2C(=O)CCCC2=O)c(Cl)c1COCC(F)(F)F [Tembotrione] | 15.6 min | 13.4 min
COP(=S)(OC)Oc1ccc(Sc2ccc(OP(=S)(OC)OC)cc2)cc1 [Temephos] | 17.2 min | 16.8 min
Cc1[nH]c(=O)n(C(C)(C)C)c(=O)c1Cl [Terbacil] | 12 min | 11.8 min
CN(CC=CC#CC(C)(C)C)Cc1cccc2ccccc12 [Terbinafine] | 18.7 min | 14 min
CCCCNc1ccc(C(=O)OCCN(C)C)cc1 [Tetracain] | 15.2 min | 11.4 min
CCCCOCCOCCOCCOCCO [Tetraethyleneglycol monobutyl ether] | 12 min | 11.7 min
COCCOCCOCCOCCOC [Tetraglyme] | 9.08 min | 9.01 min
COc1cc2c(cc1OC)C1Cc3ccc(OC)c(OC)c3CN1CC2 (stereo not given) [Tetrahydropalmatin] | 14.8 min | 9.6 min
O=C1NC(=O)C2CC=CCC12 (stereo not given) [Tetrahydrophthalimide] | 5.35 min | 5.38 min
CN(C)C(=S)SC(=S)N(C)C [Tetramethylthiuram monosulfide] | 9.63 min | 9.49 min
CN1C(=O)CN=C(C2=CCCCC2)c2cc(Cl)ccc21 [Tetrazepam] | 15.7 min | 15 min
Cn1cnc2c1c(=O)[nH]c(=O)n2C [Theobromine] | 5.86 min | 5.9 min

Compound | LC retention time [1] | LC retention time [2]
CCN(CC)C(=O)SCc1ccc(Cl)cc1 [Thiobencarb] | 16.4 min | 16 min
CCN(CC)CCNC(=O)c1cc(S(C)(=O)=O)ccc1OC [Tiapride] | 10.8 min | 6.49 min
CC(C)(C)NCC(O)COc1nsnc1N1CCOCC1 (stereo not given) [Timolol] | 13.2 min | 9.08 min
Cc1c(Cl)cccc1Nc1ccccc1C(=O)O [Tolfenamics<e4>ure] | 14.4 min | 16.7 min
Cc1cccc(N(C)C(=S)Oc2ccc3ccccc3c2)c1 [Tolnaftate] | 17 min | 16.6 min
Cc1cccc2n[nH]nc12 [Tolyltriazole] | 14.6 min | 9.9 min
Cc1cccc(Nc2ccncc2S(=O)(=O)NC(=O)NC(C)C)c1 [Torasemide] | 12.4 min | 11.6 min
CC(=O)c1cc2c(cc1C)C(C)(C)C(C)C2C(C)C (stereo not given) [Traseolide] | 18.2 min | 17.8 min
CC12C=CC3=C4CCC(=O)C=C4CCC3C1CCC2O (stereo not given) [Trenbolone] | 13.6 min | 13.4 min
CC(=O)OCC(COC(C)=O)OC(C)=O [Triacetin] | 9.54 min | 9.42 min
CC(C)N(C(=O)SCC(Cl)=C(Cl)Cl)C(C)C [Triallate] | 17.7 min | 17.3 min
CC12C=CC(=O)C=C1CCC1C3CC(O)C(O)(C(=O)CO)C3(C)CC(O)C12F (stereo not given) [Triamcinolone] | 10.1 min | 10 min
COc1nc(C)nc(NC(=O)NS(=O)(=O)c2ccccc2OCCCl)n1 [Triasulfuron] | 9.67 min | 11.5 min
COC(=O)c1ccccc1S(=O)(=O)NC(=O)N(C)c1nc(C)nc(OC)n1 [Tribenuron-methyl] | 9.4 min | 12.8 min
Cc1ccc(OP(=O)(Oc2ccc(C)cc2)Oc2ccc(C)cc2)cc1 [Tricresylphosphate] | 17.7 min | 17.3 min
Cc1cccc2sc3nncn3c12 [Tricyclazole] | 10.4 min | 10.3 min
CCOC(=O)CC(O)(CC(=O)OCC)C(=O)OCC [Triethylcitrate] | 12.1 min | 11.9 min
CC(CN(C)C)CN1c2ccccc2CCc2ccccc21 (stereo not given) [Trimipramine] | 17.8 min | 12.9 min
CCCN(CCC)CCC [Tripropylamine] | 12.5 min | 6.53 min
CC(Cl)COP(=O)(OCC(C)Cl)OCC(C)Cl (stereo not given) [Tris(2-chloropropyl) phosphate] | 14.6 min | 14.4 min
COc1nc(NC(=O)NS(=O)(=O)c2ccccc2C(F)(F)F)nc(C(F)(F)F)n1 [Tritosulfuron] | 11.9 min | 13.8 min
